≈ marks a conversion by molar mass, not a printed value.
Assays:
[1] = system: K. pneumoniae 7; assay: MIC, two-fold plate dilution method; format: cell-based; settings: K. pneumoniae 7, Gram-negative; Muener-Hinton medium
Source text: (§1) . The pharmaceutically acceptable salts or hydrates thereof have the same antibacterial activity.
(§2) Two-fold plate dilution method is used for determination of activity, with Muener-Hinton medium (DIFCO) as the culture medium and clinically isolated pathogenic strain, quality control strain and standard strain (provided by National Institute for the Control of Pharmaceutical and Biological Products) as test strains.

[2] = system: E. coli 26; assay: MIC, two-fold plate dilution method; format: cell-based; settings: E. coli 26, Gram-negative; Muener-Hinton medium
Source text: as §1, §2

[3] = system: E. coli ATTC 25922; assay: MIC, two-fold plate dilution method; format: cell-based; settings: E. coli ATTC 25922, Gram-negative; Muener-Hinton medium
Source text: as §1, §2

[4] = system: Enterococcus 755; assay: MIC, two-fold plate dilution method; format: cell-based; settings: Enterococcus 755, Gram-positive; Muener-Hinton medium
Source text: as §1, §2

[5] = system: K. pneumoniae 14; assay: MIC, two-fold plate dilution method; format: cell-based; settings: K. pneumoniae 14, Gram-negative; Muener-Hinton medium
Source text: as §1, §2

[6] = system: P. aeruginosa 17; assay: MIC, two-fold plate dilution method; format: cell-based; settings: P. aeruginosa 17, Gram-negative; Muener-Hinton medium
Source text: as §1, §2

[7] = system: S. epidermidis 26069; assay: MIC, two-fold plate dilution method; format: cell-based; settings: S. epidermidis 26069, Gram-positive; Muener-Hinton medium
Source text: as §1, §2

[8] = system: S. pneumoniae 70; assay: MIC, two-fold plate dilution method; format: cell-based; settings: S. pneumoniae 70, Gram-positive; Muener-Hinton medium
Source text: as §1, §2

[9] = system: S. pneumoniae 98; assay: MIC, two-fold plate dilution method; format: cell-based; settings: S. pneumoniae 98, Gram-positive; Muener-Hinton medium
Source text: as §1, §2

[10] = system: S. pyogenes 26; assay: MIC, two-fold plate dilution method; format: cell-based; settings: S. pyogenes 26, Gram-positive; Muener-Hinton medium
Source text: as §1, §2

[11] = system: S. aureus ATTC 25923; assay: MIC, two-fold plate dilution method; format: cell-based; settings: S. aureus ATTC 25923, Gram-positive; Muener-Hinton medium
Source text: as §2

[12] = Acute oral toxicity in mice; settings: mouse, in vivo, male mice, deaths after 7 days, Bliss program
Protocol: Toxicity experiments are carried out on the compounds prepared in embodiment 11, 13 and 15 to determine the acute oral toxicity of the present compounds. Solutions of the three compounds in different concentrations are administered to male mice at a dosage of 0.1 mL/10 g body weight, then the number of dead mice after 7 days is recorded, and lethal dose 50% (LD50) is calculated for each compound by Bliss program.

[13] = system: S. pneumoniae; settings: compared with gatifloxacin; cited from earlier work

Compound | MIC [1] | MIC [2] [µg/mL] | MIC [3] [µg/mL] | MIC [4] [µg/mL] | MIC [5] [µg/mL] | MIC [6] [µg/mL] | MIC [7] [µg/mL] | MIC [8] [µg/mL] | MIC [9] [µg/mL] | MIC [10] [µg/mL] | MIC [11] [µg/mL] | LD50 at 7 days [12] [mg/kg] | in vitro activity against S. pneumoniae (in words) [13]
O=C(O)c1cn(C2CC2)c2cc(N3CCNCC3)c(F)cc2c1=O [Ciprofloxacin, ciprofloxacin, reference compound] | 0.015 g/mL | – | – | – | – | – | – | – | – | – | – | – | –
Cl.O=C(O)c1cn(C2CC2)c2c(OC(F)F)c(N3C[C@@H]4CCCN[C@@H]4C3)c(F)cc2c1=O (relative stereo) [Embodiment 15, 1-Cyclopropyl-8-difluoromethoxyl-7-[cis-2,8-diazabicyclo[4,3,0]nonane-8-yl]-6-fluoro-1,4-dihydro-4-oxoquinoline-3-carboxylic acid hydrochloride] | 0.03 µg/mL | 0.03 | 0.25 | 0.25 | 0.03 | 0.5 | 0.5 | 0.06 | 0.125 | 0.25 | 0.125 | > 4000 | –
COc1c(N2C[C@@H]3CCCN[C@@H]3C2)c(F)cc2c(=O)c(C(=O)O)cn(C3CC3)c12 [Moxifloxacin, moxifloxacin, reference compound] | 0.03 µg/mL (≈ 0.0747 µM) | 0.03 (≈ 0.0747 µM) | 0.03 (≈ 0.0747 µM) | 0.5 (≈ 1.25 µM) | 0.03 (≈ 0.0747 µM) | 0.5 (≈ 1.25 µM) | 0.5 (≈ 1.25 µM) | 0.125 (≈ 0.311 µM) | 0.125 (≈ 0.311 µM) | 0.5 (≈ 1.25 µM) | 0.06 (≈ 0.149 µM) | – | –
Nc1c(F)c(N2C[C@@H]3CCCN[C@@H]3C2)c(OC(F)F)c2c1c(=O)c(C(=O)O)cn2C1CC1 (relative stereo) [Embodiment 21, 5-Amino-1-cyclopropyl-8-difluoromethoxyl-7-(cis-2,8-diazabicyclo[4,3,0]nonane-8-yl)-6-fluoro-1,4-dihydro-4-oxoquinoline-3-carboxylic acid] | 0.015 µg/mL (≈ 0.0332 µM) | < 0.007 | < 0.007 | 0.25 (≈ 0.553 µM) | 0.015 (≈ 0.0332 µM) | 0.25 (≈ 0.553 µM) | 0.25 (≈ 0.553 µM) | 0.06 (≈ 0.133 µM) | 0.03 (≈ 0.0663 µM) | 0.25 (≈ 0.553 µM) | 0.03 (≈ 0.0663 µM) | – | –
C[C@H]1NCc2cc(-c3ccc4c(=O)c(C(=O)O)cn(C5CC5)c4c3OC(F)F)ccc21 [Embodiment T-3811] | – | – | – | – | – | – | – | – | – | – | – | – | enhanced in vitro activity against S. pneumoniae, even superior to gatifloxacin
Cl.O=C(O)c1cn(C2CC2)c2c(OC(F)F)c(N3C[C@@H]4CCCN[C@@H]4C3)c(F)cc2c1=O [Embodiment 13, 1-cyclopropyl-8-difluoromethoxyl-7-[(1S,6S)-2,8-diazabicyclo[4,3,0]nonane-8-yl]-6-fluoro-1,4-dihydro-4-oxoquinoline-3-carboxylic acid hydrochloride] | 0.015 µg/mL | 0.015 | 0.015 | 0.25 | 0.015 | 0.25 | 0.25 | 0.125 | 0.015 | 0.25 | 0.03 | > 4000 | –
Cl.Nc1c(F)c(N2C[C@H]3CCCN[C@H]3C2)c(OC(F)F)c2c1c(=O)c(C(=O)O)cn2C1CC1 [Embodiment 18, 5-Amino-1-cyclopropyl-8-difluoromethoxyl-7-[(1R,6R)-2,8-diazabicyclo[4,3,0]nonane-8-yl]-6-fluoro-1,4-dihydro-4-oxoquinoline-3-carboxylic acid hydrochloride] | 0.015 µg/mL | 0.015 | 0.015 | 0.06 | 0.015 | 0.25 | 0.25 | 0.03 | 0.125 | 0.25 | 0.06 | – | –
Cl.O=C(O)c1cn(C2CC2)c2c(OC(F)F)c(N3C[C@H]4CCCN[C@H]4C3)c(F)cc2c1=O [Embodiment 14, 1-cyclopropyl-8-difluoromethoxyl-7-[(1R,6R)-2,8-diazabicyclo[4,3,0]nonane-8-yl]-6-fluoro-1,4-dihydro-4-oxoquinoline-3-carboxylic acid hydrochloride] | 0.03 µg/mL | 0.03 | 0.015 | 0.25 | 0.03 | 1 | 0.5 | 0.06 | 0.015 | 0.5 | 0.03 | – | –
Cl.Nc1c(F)c(N2C[C@@H]3CCCN[C@@H]3C2)c(OC(F)F)c2c1c(=O)c(C(=O)O)cn2C1CC1 [Embodiment 17, 5-amino-1-cyclopropyl-8-difluoromethoxyl-7-[(1S,6S)-2,8-diazabicyclo[4,3,0]nonane-8-yl]-6-fluoro-1,4-dihydro-4-oxoquinoline-3-carboxylic acid hydrochloride] | 0.015 µg/mL | 0.015 | 0.051 | 0.015 | 0.015 | 0.25 | 0.25 | 0.015 | 0.015 | 0.25 | 0.03 | > 4000 | –

— patent publication US7759362B2, “Quinolonecarboxylic acid compounds, preparation methods and pharmaceutical uses thereof” (Institut of Medicinal Biotechnology Chinese Academy of …, priority 2004, dated 2010)
